Assay results from ChEMBL document CHEMBL1201862, “PubChem BioAssay data set” (2004).
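These data come from cells grown in 96-well plates and exposed to compound for 48 hours at five concentrations. At the GI50, growth is halved.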 Calls of active or inactive are those of the source. No stated cut-off is given here; in the data, active = GI50 up to about 1.1 µM and inactive = higher.

Experiments:
Experiment in all cases: growth of human tumour cells (NCI), 48 h
CCRF-CEM = tested on: CCRF-CEM
HCC 2998 = tested on: HCC 2998
HCT-116 = tested on: HCT-116
Hs-578T = tested on: Hs-578T
KM12 = tested on: KM12
LOX IMVI = tested on: LOX IMVI
MDA-N = tested on: MDA-N
NCI-H522 = tested on: NCI-H522
NCI/ADR-RES = tested on: NCI/ADR-RES
SF-268 = tested on: SF-268
SF-295 = tested on: SF-295
SF-539 = tested on: SF-539
SK-MEL-5 = tested on: SK-MEL-5
SN12C = tested on: SN12C
SNB-19 = tested on: SNB-19
SW-620 = tested on: SW-620
U-251 = tested on: U-251
UACC-62 = tested on: UACC-62
UO-31 = tested on: UO-31
NCI-H23 = tested on: NCI-H23

Structure (SMILES)	GI50 (CCRF-CEM)	GI50 (HCC 2998)	GI50 (HCT-116)	GI50 (Hs-578T)	GI50 (KM12)	GI50 (LOX IMVI)	GI50 (MDA-N)	GI50 (NCI-H522)	GI50 (NCI/ADR-RES)	GI50 (SF-268)	GI50 (SF-295)	GI50 (SF-539)	GI50 (SK-MEL-5)	GI50 (SN12C)	GI50 (SNB-19)	GI50 (SW-620)	GI50 (U-251)	GI50 (UACC-62)	GI50 (UO-31)	GI50 (NCI-H23)
CCOC(=O)c1cc([N+](=O)[O-])cc([N+](=O)[O-])c1Sc1[nH]cnc2ncnc1-2	0.462 µM (active)	11.9 µM (inactive)	2.12 µM (inactive)	6.92 µM (inactive)	5.25 µM (inactive)	0.454 µM (active)	1.82 µM (inactive)	1.55 µM (inactive)	3.11 µM (inactive)	3.32 µM (inactive)	7.29 µM (inactive)	2.92 µM (inactive)	5.94 µM (inactive)	2.21 µM (inactive)	19.5 µM (inactive)	2.42 µM (inactive)	8.71 µM (inactive)	4.5 µM (inactive)	1.75 µM (inactive)	–
O=C(Nc1ccc([As](=O)(O)O)cc1)Nc1cccc(Cl)c1Cl	–	> 100 µM (inactive)	> 100 µM (inactive)	20.5 µM (inactive)	> 100 µM (inactive)	> 100 µM (inactive)	> 100 µM (inactive)	> 100 µM (inactive)	> 100 µM (inactive)	45.7 µM (inactive)	65.5 µM (inactive)	> 100 µM (inactive)	> 100 µM (inactive)	> 100 µM (inactive)	86.1 µM (inactive)	> 100 µM (inactive)	36.5 µM (inactive)	> 100 µM (inactive)	40.6 µM (inactive)	> 100 µM (inactive)
C=C(C)C1CC2(C)C(C)CC(OC(=O)/C(C)=C\C)CC2C(OC(=O)/C(C)=C\C)C1O (stereo not given)	20.8 µM (inactive)	> 100 µM (inactive)	56.1 µM (inactive)	34.7 µM (inactive)	38.6 µM (inactive)	38.6 µM (inactive)	55.8 µM (inactive)	32.7 µM (inactive)	> 100 µM (inactive)	66.4 µM (inactive)	–	> 100 µM (inactive)	15.6 µM (inactive)	62.2 µM (inactive)	25.1 µM (inactive)	61 µM (inactive)	75.5 µM (inactive)	84.5 µM (inactive)	39.8 µM (inactive)	61.9 µM (inactive)
Cc1cc(NS(=O)(=O)c2ccc(NC(=O)c3ccc4nc5ccccc5c(Nc5ccc(S(N)(=O)=O)cc5)c4c3)cc2)no1	22.6 µM (inactive)	38.9 µM (inactive)	24.8 µM (inactive)	31.9 µM (inactive)	22.9 µM (inactive)	13.6 µM (inactive)	25.6 µM (inactive)	17.8 µM (inactive)	31.8 µM (inactive)	30.5 µM (inactive)	26.6 µM (inactive)	27.9 µM (inactive)	25.1 µM (inactive)	27.2 µM (inactive)	58.2 µM (inactive)	28.1 µM (inactive)	25.5 µM (inactive)	29.7 µM (inactive)	20.1 µM (inactive)	33 µM (inactive)
COc1ccc(CCCCNCc2cccc(CNCCCCc3ccc(OC)cc3)c2)cc1	1.67 µM (inactive)	0.308 µM (active)	1.94 µM (inactive)	1.69 µM (inactive)	1.77 µM (inactive)	1.6 µM (inactive)	2 µM (inactive)	1.88 µM (inactive)	1.8 µM (inactive)	1.76 µM (inactive)	1.93 µM (inactive)	1.96 µM (inactive)	1.66 µM (inactive)	2.04 µM (inactive)	1.71 µM (inactive)	2.23 µM (inactive)	1.85 µM (inactive)	1.85 µM (inactive)	1.35 µM (inactive)	1.78 µM (inactive)
O=C(O)CC1NC(/C(=C/c2ccccc2)NC(=O)c2ccccc2)OC1=O (stereo not given)	22.6 µM (inactive)	37.9 µM (inactive)	18.5 µM (inactive)	44.8 µM (inactive)	17.4 µM (inactive)	16.2 µM (inactive)	30.1 µM (inactive)	16.5 µM (inactive)	21.7 µM (inactive)	36.3 µM (inactive)	38.1 µM (inactive)	21 µM (inactive)	16.4 µM (inactive)	43.3 µM (inactive)	25.9 µM (inactive)	19.5 µM (inactive)	18.4 µM (inactive)	22.5 µM (inactive)	23.8 µM (inactive)	42.7 µM (inactive)
O=c1oc2ccccc2cc1-c1nnc(-c2ccccc2)s1	40.3 µM (inactive)	12 µM (inactive)	20.3 µM (inactive)	> 64.4 µM (inactive)	4.61 µM (inactive)	> 72.8 µM (inactive)	2.54 µM (inactive)	13.7 µM (inactive)	12.1 µM (inactive)	> 57.9 µM (inactive)	28.2 µM (inactive)	14.5 µM (inactive)	> 71.3 µM (inactive)	60.5 µM (inactive)	41.6 µM (inactive)	12.1 µM (inactive)	12.6 µM (inactive)	> 100 µM (inactive)	55.6 µM (inactive)	> 51.2 µM (inactive)
COC(=O)c1ccc2c(c1)CC1(C2)Cc2cc3c(cc2C1=O)CCC3 (stereo not given)	15 µM (inactive)	40.3 µM (inactive)	29.6 µM (inactive)	77.4 µM (inactive)	9.46 µM (inactive)	24.3 µM (inactive)	21.1 µM (inactive)	39.6 µM (inactive)	22 µM (inactive)	79.6 µM (inactive)	56.5 µM (inactive)	> 100 µM (inactive)	9.18 µM (inactive)	22 µM (inactive)	> 100 µM (inactive)	60.4 µM (inactive)	33.7 µM (inactive)	–	38.7 µM (inactive)	43.6 µM (inactive)
COc1c2c(cc3c1C1(O)Cc4ccc5c(c4C[N+]1(C)CC3)OCO5)OCO2 (stereo not given)	82.8 µM (inactive)	33 µM (inactive)	35.1 µM (inactive)	> 100 µM (inactive)	> 100 µM (inactive)	62.1 µM (inactive)	> 100 µM (inactive)	72.9 µM (inactive)	> 100 µM (inactive)	> 100 µM (inactive)	> 100 µM (inactive)	> 100 µM (inactive)	> 100 µM (inactive)	> 100 µM (inactive)	> 100 µM (inactive)	> 100 µM (inactive)	> 100 µM (inactive)	> 100 µM (inactive)	–	> 100 µM (inactive)
COC(=O)C1(C)CCCC2(C)C3CCC4CC3(C=C4CO)CCC12 (stereo not given)	41.7 µM (inactive)	39.6 µM (inactive)	30.6 µM (inactive)	> 100 µM (inactive)	–	20.7 µM (inactive)	46.7 µM (inactive)	34.2 µM (inactive)	24.4 µM (inactive)	37.8 µM (inactive)	60.4 µM (inactive)	32.1 µM (inactive)	37.2 µM (inactive)	20.3 µM (inactive)	28.2 µM (inactive)	69.2 µM (inactive)	57.4 µM (inactive)	> 100 µM (inactive)	32.9 µM (inactive)	38.1 µM (inactive)
N#Cc1cc2c(n(C3OC(CO)C(O)C(O)C3O)c1=S)CCC2 (stereo not given)	> 100 µM (inactive)	> 100 µM (inactive)	> 100 µM (inactive)	> 100 µM (inactive)	> 100 µM (inactive)	> 100 µM (inactive)	> 100 µM (inactive)	> 100 µM (inactive)	> 100 µM (inactive)	> 100 µM (inactive)	> 100 µM (inactive)	> 100 µM (inactive)	> 100 µM (inactive)	> 100 µM (inactive)	> 100 µM (inactive)	–	> 100 µM (inactive)	> 100 µM (inactive)	> 100 µM (inactive)	> 100 µM (inactive)
Nc1ccc2c(=O)cc(-c3ccc(Br)s3)[nH]c2n1	2.37 µM (inactive)	3.39 µM (inactive)	3.02 µM (inactive)	2.36 µM (inactive)	0.673 µM (active)	4.69 µM (inactive)	0.323 µM (active)	1.42 µM (inactive)	2.6 µM (inactive)	6.22 µM (inactive)	2.83 µM (inactive)	2.16 µM (inactive)	1.35 µM (inactive)	6.55 µM (inactive)	4.63 µM (inactive)	1.12 µM (active)	3.61 µM (inactive)	3.02 µM (inactive)	2.64 µM (inactive)	2.22 µM (inactive)
CC1=CC(=O)/C(=C/NC(=S)NCc2ccccc2)C(=O)O1	> 100 µM (inactive)	> 100 µM (inactive)	> 100 µM (inactive)	> 100 µM (inactive)	> 100 µM (inactive)	> 100 µM (inactive)	> 100 µM (inactive)	> 100 µM (inactive)	> 100 µM (inactive)	> 100 µM (inactive)	> 100 µM (inactive)	> 100 µM (inactive)	> 100 µM (inactive)	> 100 µM (inactive)	> 100 µM (inactive)	> 100 µM (inactive)	> 100 µM (inactive)	> 100 µM (inactive)	> 100 µM (inactive)	> 100 µM (inactive)
S=C(S)N1CCN(c2ccc(Cl)c(Cl)c2)CC1	13 µM (inactive)	20.8 µM (inactive)	13.9 µM (inactive)	23.4 µM (inactive)	16.3 µM (inactive)	16.6 µM (inactive)	19.3 µM (inactive)	21.6 µM (inactive)	41.4 µM (inactive)	31.8 µM (inactive)	28.7 µM (inactive)	24.3 µM (inactive)	16.1 µM (inactive)	30.1 µM (inactive)	42.5 µM (inactive)	21.7 µM (inactive)	26.3 µM (inactive)	–	–	–
